The experiment deals with fecundity of hamsters. Put plainly: standardized test for capacity to inhibit the fecundity of hamsters (implantation rate). It counts as in vivo, Syrian golden hamsters. The procedure: The contraceptive utility of the instant compounds is evident from the results of a standardized test for their capacity to inhibit the fecundity of hamsters. In this test, sexually-mature female Syrian golden hamsters weighing at least 105 g are mated; and to each of a group of 5 is administered, daily for 5 days beginning on the first day sperm appears in the vagina between 8:15 and 10:00 a.m., test compound dissolved or suspended in an inert vehicle. The initial daily dose is ordinarily 50 mg/kg in 0.2 ml of corn oil, subcutaneously or intragastrically. A group of such animals to which is likewise administered vehicle alone serves as controls. Approximately 48 hr. after the 5th dose, the animals are sacrificed and their uteri and ovaries inspected for implantation sites and corpora lutea. If the total number of the former divided by the total number of the later (i.e., the implantation rate) affords a value amounting to 0.5 or less, the compound is considered to inhibit fecundity in the foregoing test. The ED50 of such a compound is determined by repeating the test at appropriate doosage(s). Potency is expressed as the ratio of the ED50 of estrone to that of compound.

Setting [1] is: mated female Syrian golden hamsters, 10 mg/kg subcutaneously in corn oil, daily for 5 days.

As to `CCCCC[C@H](O)/C=C/C1C(C/C=C\CCCC(=O)OC)C(=O)C2OC(=O)OC21` (stereo partly drawn) [Example 1, methyl 7-[tetrahydro-4-(3S-hydroxy-1E-octenyl)-2,6-dioxo-4H-cyclopenta-1,3-dioxol-5-yl]-5Z-heptenoate], the ED50 – broadly, the midpoint of the dose-response relation – (Mesocricetus auratus, 120 h, mated female Syrian golden hamsters, daily for 5 days, read-out: ED50 (inhibition of fecundity)) stood at 5.6 mg/kg. Also, under setting [1], the “implantation rate (total implantation sites divided by total corpora lutea)” value is recorded as 0.16 and the “inhibition of fecundity (implantation rate 0.5 or less)” value is recorded as “inhibited fecundity”. Also, the “potency (ratio of the ED50 of estrone to that of compound)” value (relative to estrone, hamster fecundity test) is reported as “approximately 1%”.
